# Earlier results, collected in patent US12062414B1, “System and method for predicting susceptibility of genus Klebsiella to amikacin” (Peking Union Medical College Hospital, Chinese Academy of …, priority 2023, dated 2024).
# Test system: carbapenem-resistant Klebsiella pneumoniae
# Settings: isolated from 2014-2017; data from 252/403
structure (smiles),measurement,value
NCC[C@H](O)C(=O)N[C@@H]1C[C@H](N)[C@@H](O[C@H]2O[C@H](CN)[C@@H](O)[C@H](O)[C@H]2O)[C@H](O)[C@H]1O[C@H]1O[C@H](CO)[C@@H](O)[C@H](N)[C@H]1O [amikacin],resistance rate to amikacin,62.5%
